Measured values as given in US20110105491A1, “THIAZOLIDINE COMPOUNDS AS OREXIN RECEPTOR ANTAGONISTS” (priority 2008, published 2011).
Where two headings read alike, the source gives them in different places. Each block holds one compound with its values, some of them ahead of it.

Columns and labels:
human orexin-2 receptor = target: T1, human orexin-2 receptor (Homo sapiens, UniProt O43614); assay: FLIPR calcium assay of orexin receptor antagonistic activity, CHO cells expressing human orexin-2 receptor; format: cell-based; settings: read-out: OX2 IC50
T1 construct: expressed in transfected cells; host or cells: Chinese hamster ovary (CHO) cells
T1 sequence (O43614 1-444): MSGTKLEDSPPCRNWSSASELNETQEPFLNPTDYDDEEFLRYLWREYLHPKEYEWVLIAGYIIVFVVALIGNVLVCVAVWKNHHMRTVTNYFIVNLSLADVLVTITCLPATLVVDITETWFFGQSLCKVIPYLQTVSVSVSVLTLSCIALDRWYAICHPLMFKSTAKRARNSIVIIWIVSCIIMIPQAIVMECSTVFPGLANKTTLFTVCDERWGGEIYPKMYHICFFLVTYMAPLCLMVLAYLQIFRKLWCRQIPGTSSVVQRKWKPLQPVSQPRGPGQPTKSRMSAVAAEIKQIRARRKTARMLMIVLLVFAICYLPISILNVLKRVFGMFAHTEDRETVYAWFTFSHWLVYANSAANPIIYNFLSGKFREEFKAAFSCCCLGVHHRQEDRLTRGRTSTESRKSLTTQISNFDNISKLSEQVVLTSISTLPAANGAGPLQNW
Procedure: (§1) The orexin receptor antagonistic activity of the compounds of formula (I) is determined in accordance with the following experimental method.
(§2) Chinese hamster ovary (CHO) cells expressing the human orexin-1 receptor and the human orexin-2 receptor, respectively, are grown in culture medium (Ham F-12 with L-Glutamine) containing 300 μg/ml G418, […] penicillin, 100 μg/ml streptomycin and 10% heat inactivated fetal calf serum (FCS). The cells are seeded at 20′000 cells/well into 384-well black clear bottom sterile plates (Greiner). The seeded plates are incubated overnight at 37° C. in 5% CO2.
(§3) Human orexin-A as an agonist is prepared as 1 mM stock solution in MeOH:water (1:1), diluted in HBSS containing 0.1% bovine serum albumin (BSA), NaHCO3: 0.375 g/l and 20 mM HEPES for use in the assay at a final concentration of 3 nM.
(§4) Antagonists are prepared as 10 mM stock solution in DMSO, then diluted in 384-well plates using DMSO followed by a transfer of the dilutions into in HBSS containing 0.1% bovine serum albumin (BSA), NaHCO3: 0.375 g/l and 20 mM HEPES. On the day of the assay, 50 μl of staining buffer (HBSS containing 1% FCS, 20 mM HEPES, NaHCO3: 0.375 g/l, 5 mM probenecid (Sigma) and 3 μM of the fluorescent calcium indicator fluo-4 AM (1 mM stock solution in DMSO, containing 10% pluronic) is added to each well. The 384-well cell-plates are incubated for 50 min at 37° C. in 5% CO2 followed by equilibration at rt for 30-120 min before measurement.
(§5) Within the Fluorescent Imaging Plate Reader (FLIPR Tetra, Molecular Devices), antagonists are added to the plate in a volume of 10 μl/well, incubated for 10 min and finally […] of agonist is added. Fluorescence is measured for each well at 1 second intervals, and the height of each fluorescence peak is compared to the height of the fluorescence peak induced by 3 nM orexin-A with vehicle in place of antagonist. For each antagonist, the IC50 value (the concentration of compound needed to inhibit 50% of the agonistic response) is determined and may be normalized using the obtained IC50 value of a on-plate reference compound (normalized values in Table 1 are indicated by an asterisk *). Optimized conditions were achieved by adjustment of pipetting speed and cell splitting regime. The calculated IC50 values of the compounds may fluctuate depending on the daily cellular assay performance. Fluctuations of this kind are known to those skilled in the art.

human orexin-1 receptor = target: T2, human orexin-1 receptor (Homo sapiens, UniProt O43613); assay: FLIPR calcium assay of orexin receptor antagonistic activity, CHO cells expressing human orexin-1 receptor; format: cell-based; settings: read-out: OX1 IC50
T2 construct: expressed in transfected cells; host or cells: Chinese hamster ovary (CHO) cells
T2 sequence (O43613 1-425): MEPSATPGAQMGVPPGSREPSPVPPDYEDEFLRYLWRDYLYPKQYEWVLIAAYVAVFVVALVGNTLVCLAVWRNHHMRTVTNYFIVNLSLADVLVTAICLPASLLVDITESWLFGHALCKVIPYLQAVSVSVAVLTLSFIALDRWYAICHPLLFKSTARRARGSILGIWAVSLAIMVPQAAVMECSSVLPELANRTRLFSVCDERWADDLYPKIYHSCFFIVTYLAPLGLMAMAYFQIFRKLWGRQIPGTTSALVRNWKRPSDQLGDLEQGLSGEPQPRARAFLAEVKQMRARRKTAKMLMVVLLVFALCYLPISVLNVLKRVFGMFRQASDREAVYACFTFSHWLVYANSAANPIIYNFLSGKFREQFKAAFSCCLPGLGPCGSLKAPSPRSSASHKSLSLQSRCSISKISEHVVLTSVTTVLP
Procedure: as §1, §2, §3, §4, §5

rat = settings: cited from earlier work
[1] = test system: rat model of post-traumatic stress disorder; settings: cited from earlier work
rat model = settings: cited from earlier work
[2] = 3 nM orexin-A as agonist, not normalized, *2/*3 = geometric mean of n = 2/3 values

IC50 (human orexin-2 receptor; [2]): 10 nM | IC50 (human orexin-1 receptor; [2]): 12 nM
SMILES: Cc1ccc(-c2ccccc2C(=O)N2CCSC2CNC(=O)c2cccc3ncsc23)cc1C (racemic) [Example 72, rac-Benzothiazole-7-carboxylic acid [3-(3′,4′-dimethyl-biphenyl-2-carbonyl)-thiazolidin-2-ylmethyl]-amide]

IC50 (human orexin-2 receptor; [2]): 4 nM | IC50 (human orexin-1 receptor; [2]): 4 nM
SMILES: Cc1nc(C(=O)N2CCSC2CNC(=O)c2cccc3c2CCO3)c(-c2ccc(F)cc2)s1 (racemic) [Example 77, rac-2,3-Dihydro-benzofuran-4-carboxylic acid {3-[5-(4-fluoro-phenyl)-2-methyl-thiazole-4-carbonyl]-thiazolidin-2-ylmethyl}-amide]

IC50 (human orexin-2 receptor; [2]): 11 nM | IC50 (human orexin-1 receptor; [2]): 14 nM
SMILES: Cc1cccc(-c2oc(C)nc2C(=O)N2CCSC2CNC(=O)c2cccc3ncsc23)c1 (racemic) [Example 83, rac-Benzothiazole-7-carboxylic acid [3-(2-methyl-5-m-tolyl-oxazole-4-carbonyl)-thiazolidin-2-ylmethyl]-amide]

IC50 (human orexin-2 receptor; [2]): 7 nM | IC50 (human orexin-1 receptor; [2]): 4 nM
SMILES: Cc1nc(C(=O)N2CCSC2CNC(=O)c2cccc3ncsc23)c(-c2ccccc2)o1 (racemic) [Example 88, rac-Benzothiazole-7-carboxylic acid [3-(2-methyl-5-phenyl-oxazole-4-carbonyl)-thiazolidin-2-ylmethyl]-amide]

IC50 (human orexin-2 receptor; [2]): 68 nM | IC50 (human orexin-1 receptor; [2]): 23 nM
SMILES: Cc1nc(C(=O)N2CCSC2CNC(=O)c2cccc3c2OCCO3)c(-c2cccc(F)c2)o1 (racemic) [Example 95, rac-2,3-Dihydro-benzo[1,4]dioxine-5-carboxylic acid {3-[5-(3-fluoro-phenyl)-2-methyl-oxazole-4-carbonyl]-thiazolidin-2-ylmethyl}-amide]

IC50 (human orexin-2 receptor; [2]): 8 nM | IC50 (human orexin-1 receptor; [2]): 7 nM
SMILES: COc1cccc(-c2oc(C)nc2C(=O)N2CCSC2CNC(=O)c2cccc3ncsc23)c1 (racemic) [Example 104, rac-Benzothiazole-7-carboxylic acid {3-[5-(3-methoxy-phenyl)-2-methyl-oxazole-4-carbonyl]-thiazolidin-2-ylmethyl}-amide]

IC50 (human orexin-2 receptor; [2]): 10 nM | IC50 (human orexin-1 receptor; [2]): 7 nM
SMILES: Cc1cccc(-c2sccc2C(=O)N2CCSC2CNC(=O)c2cccc3ncsc23)c1 (racemic) [Example 109, rac-Benzothiazole-7-carboxylic acid [3-(2-m-tolyl-thiophene-3-carbonyl)-thiazolidin-2-ylmethyl]-amide]

IC50 (human orexin-2 receptor; [2]): 7 nM | IC50 (human orexin-1 receptor; [2]): 8 nM
SMILES: Cc1nc(C(=O)N2CCSC2CNC(=O)c2cccc3ncsc23)c(-c2ccc(C)c(F)c2)s1 (racemic) [Example 120, rac-Benzothiazole-7-carboxylic acid {3-[5-(3-fluoro-4-methyl-phenyl)-2-methyl-thiazole-4-carbonyl]-thiazolidin-2-ylmethyl}-amide]

IC50 (human orexin-2 receptor; [2]): 11 nM | IC50 (human orexin-1 receptor; [2]): 11 nM
SMILES: Cc1nc(C(=O)N2CCSC2CNC(=O)c2nn(C)c3ccccc23)c(-c2ccc(C)c(F)c2F)s1 (racemic) [Example 126, rac-1-Methyl-1H-indazole-3-carboxylic acid {3-[5-(2,3-difluoro-4-methyl-phenyl)-2-methyl-thiazole-4-carbonyl]-thiazolidin-2-ylmethyl}-amide]

IC50 (human orexin-2 receptor; [2]): 14 nM | IC50 (human orexin-1 receptor; [2]): 12 nM
SMILES: Cc1cccc(-c2sc(N(C)C)nc2C(=O)N2CCSC2CNC(=O)c2cccc3c2CCO3)c1 (racemic) [Example 128, rac-2,3-Dihydro-benzofuran-4-carboxylic acid [3-(2-dimethylamino-5-m-tolyl-thiazole-4-carbonyl)-thiazolidin-2-ylmethyl]-amide]

IC50 (human orexin-2 receptor): 15 nM | IC50 (human orexin-1 receptor): 4 nM
SMILES: COc1ncccc1C(=O)NCC1SCCN1C(=O)c1nc(C)sc1-c1cccc(C)c1 (racemic) [Example 160, rac-2-Methoxy-N-[3-(2-methyl-5-m-tolyl-thiazole-4-carbonyl)-thiazolidin-2-ylmethyl]-nicotinamide]

Continued, compound first:

SMILES: O=C(NCC1SCCN1C(=O)c1nc(C2CC2)sc1-c1cccc(F)c1)c1cccc2c1CCO2 (racemic) [Example 116, rac-2,3-Dihydro-benzofuran-4-carboxylic acid {3-[2-cyclopropyl-5-(3-fluoro-phenyl)-thiazole-4-carbonyl]-thiazolidin-2-ylmethyl}-amide]
IC50 (human orexin-2 receptor; [2]): 5 nM | IC50 (human orexin-1 receptor; [2]): 2 nM

SMILES: CCc1onc(C)c1C(=O)NCC1SCCN1C(=O)c1nc(C)sc1-c1cccc(C)c1 (racemic) [Example 140, rac-5-Ethyl-3-methyl-isoxazole-4-carboxylic acid [3-(2-methyl-5-m-tolyl-thiazole-4-carbonyl)-thiazolidin-2-ylmethyl]-amide]
IC50 (human orexin-2 receptor): 9 nM | IC50 (human orexin-1 receptor): 9 nM

SMILES: Cc1cccc(-c2sc(C)nc2C(=O)N2CCSC2CNC(=O)c2cnn(C)c2C(F)(F)F)c1 (racemic) [Example 142, rac-1-Methyl-5-trifluoromethyl-1H-pyrazole-4-carboxylic acid [3-(2-methyl-5-m-tolyl-thiazole-4-carbonyl)-thiazolidin-2-ylmethyl]-amide]
IC50 (human orexin-2 receptor): 12 nM | IC50 (human orexin-1 receptor): 5 nM

SMILES: Cc1cccc(-c2sc(C)nc2C(=O)N2CCSC2CNC(=O)c2cccc(C(F)(F)F)n2)c1 (racemic) [Example 162, rac-6-Trifluoromethyl-pyridine-2-carboxylic acid [3-(2-methyl-5-m-tolyl-thiazole-4-carbonyl)-thiazolidin-2-ylmethyl]-amide]
IC50 (human orexin-2 receptor): 41 nM | IC50 (human orexin-1 receptor): 5 nM

SMILES: Cc1cccc(-c2sc(C)nc2C(=O)N2CCSC2CNC(=O)c2nc(C)oc2C)c1 (racemic) [Example 163, rac-2,5-Dimethyl-oxazole-4-carboxylic acid [3-(2-methyl-5-m-tolyl-thiazole-4-carbonyl)-thiazolidin-2-ylmethyl]-amide]
IC50 (human orexin-2 receptor): 8 nM | IC50 (human orexin-1 receptor): 5 nM

SMILES: Cc1cccc(-c2sc(C)nc2C(=O)N2CCSC2CNC(=O)c2sc(C)nc2C)c1 (racemic) [Example 165, rac-2,4-Dimethyl-thiazole-5-carboxylic acid [3-(2-methyl-5-m-tolyl-thiazole-4-carbonyl)-thiazolidin-2-ylmethyl]-amide]
IC50 (human orexin-2 receptor): 5 nM | IC50 (human orexin-1 receptor): 6 nM

SMILES: CNC(=O)[C@@H](c1ccccc1)N1CCc2cc(OC)c(OC)cc2[C@@H]1CCc1ccc(C(F)(F)F)cc1 [(2R)-2-{(1S)-6,7-dimethoxy-1-[2-(4-trifluoromethyl-phenyl)-ethyl]-3,4-dihydro-1H-isoquinolin-2-yl}-N-methyl-2-phenyl-acetamide]
alertness (active wake and locomotion) (rat): decrease alertness | time spent in REM and NREM sleep (rat): dose-dependently increase the time spent in both REM and NREM sleep | activity in model of post-traumatic stress disorder [1]: active | memory function (rat model): enhance memory function
